Assay results: PubChem BioAssay AID1259407 (Chemical Carcinogenesis Research Information System (CCRIS), 2018)
Active and inactive are the calls of the source. How the calls were made is not given here.

Tested on: CCRIS mutagenicity, Ames/micronucleus/aberration tests
Assay: CCRIS mutagenicity studies

Measured: mutagenic call

c1ccccc1
inactive: End Point: IN VITRO CHROMOSOMAL ABERRATIONS, Test System: CHO CELLS, Metabolic Activation: NONE inactive; negative | End Point: IN VITRO CHROMOSOMAL ABERRATIONS, Test System: CHO CELLS, Metabolic Activation: RAT, LIVER, S-9, AROCLOR 1254 inactive; negative | End Point: IN VITRO MICRONUCLEUS, Test System: AHH-1 CELLS, Metabolic Activation: NONE inactive; negative | End Point: IN VITRO MICRONUCLEUS, Test System: V79 CELLS, Metabolic Activation: RAT, LIVER, S-9, AROCLOR 1254 inactive; negative | Test System: AMES SALMONELLA TYPHIMURIUM, Strain/Indicator: TA97, Metabolic Activation: HAMSTER LIVER S-9, AROCLOR 1254 (10 OR 30%), Method: PREINCUBATION inactive; negative | Test System: AMES SALMONELLA TYPHIMURIUM, Strain/Indicator: TA97, Metabolic Activation: NONE, Method: PREINCUBATION inactive; negative | Test System: AMES SALMONELLA TYPHIMURIUM, Strain/Indicator: TA97, Metabolic Activation: NONE, Method: STANDARD PLATE inactive; negative | Test System: AMES SALMONELLA TYPHIMURIUM, Strain/Indicator: TA97, Metabolic Activation: RAT LIVER S-9, AROCLOR 1254 (10 OR 30%), Method: PREINCUBATION inactive; negative | Test System: AMES SALMONELLA TYPHIMURIUM, Strain/Indicator: TA97, Metabolic Activation: RAT, LIVER, S-9, AROCLOR 1254, Method: STANDARD PLATE inactive; negative | Test System: AMES SALMONELLA TYPHIMURIUM, Strain/Indicator: TA97, Metabolic Activation: S-9, Method: STANDARD PLATE inactive; negative | Test System: AMES SALMONELLA TYPHIMURIUM, Strain/Indicator: TA98, Metabolic Activation: HAMSTER LIVER S-9, AROCLOR 1254 (10 OR 30%), Method: PREINCUBATION inactive; negative | Test System: AMES SALMONELLA TYPHIMURIUM, Strain/Indicator: TA98, Metabolic Activation: NONE, Method: PREINCUBATION inactive; negative | Test System: AMES SALMONELLA TYPHIMURIUM, Strain/Indicator: TA98, Metabolic Activation: RAT LIVER S-9, AROCLOR 1254 (10 OR 30%), Method: PREINCUBATION inactive; negative | Test System: AMES SALMONELLA TYPHIMURIUM, Strain/Indicator: TA98, Metabolic Activation: RAT, LIVER, S-9, AROCLOR 1254, Method: DESICCATOR inactive; negative | Test System: AMES SALMONELLA TYPHIMURIUM, Strain/Indicator: TA98, Metabolic Activation: RAT, LIVER, S-9, AROCLOR 1254, Method: STANDARD PLATE inactive; negative | Test System: AMES SALMONELLA TYPHIMURIUM, Strain/Indicator: TA98, Metabolic Activation: RAT, LIVER, S-9, AROCLOR, Method: STANDARD PLATE inactive; negative | Test System: AMES SALMONELLA TYPHIMURIUM, Strain/Indicator: TA98, Metabolic Activation: RAT, LIVER, S-9, ETHANOL, Method: STANDARD PLATE inactive; negative | Test System: AMES SALMONELLA TYPHIMURIUM, Strain/Indicator: TA98, Metabolic Activation: RAT, LIVER, S-9, PHENOBARBITAL, Method: STANDARD PLATE inactive; negative | Test System: AMES SALMONELLA TYPHIMURIUM, Strain/Indicator: TA98, Metabolic Activation: RAT, LIVER, S-9, PYRAZOLE, Method: STANDARD PLATE inactive; negative | Test System: AMES SALMONELLA TYPHIMURIUM, Strain/Indicator: TA98, Metabolic Activation: S-9, Method: STANDARD PLATE inactive; negative | Test System: AMES SALMONELLA TYPHIMURIUM, Strain/Indicator: TA100, Metabolic Activation: HAMSTER LIVER S-9, AROCLOR 1254 (10 OR 30%), Method: PREINCUBATION inactive; negative | Test System: AMES SALMONELLA TYPHIMURIUM, Strain/Indicator: TA100, Metabolic Activation: NONE, Method: DESICCATOR inactive; negative | Test System: AMES SALMONELLA TYPHIMURIUM, Strain/Indicator: TA100, Metabolic Activation: NONE, Method: PREINCUBATION inactive; negative | Test System: AMES SALMONELLA TYPHIMURIUM, Strain/Indicator: TA100, Metabolic Activation: RAT LIVER S-9, AROCLOR 1254 (10 OR 30%), Method: PREINCUBATION inactive; negative | Test System: AMES SALMONELLA TYPHIMURIUM, Strain/Indicator: TA100, Metabolic Activation: RAT, LIVER, S-9, AROCLOR 1254, Method: DESICCATOR inactive; negative | Test System: AMES SALMONELLA TYPHIMURIUM, Strain/Indicator: TA100, Metabolic Activation: RAT, LIVER, S-9, AROCLOR 1254, Method: STANDARD PLATE inactive; negative | Test System: AMES SALMONELLA TYPHIMURIUM, Strain/Indicator: TA100, Metabolic Activation: RAT, LIVER, S-9, AROCLOR, Method: STANDARD PLATE inactive; negative | Test System: AMES SALMONELLA TYPHIMURIUM, Strain/Indicator: TA100, Metabolic Activation: RAT, LIVER, S-9, ETHANOL, Method: STANDARD PLATE inactive; negative
breaks in chromosomes 1 and 9: End Point: IN VIVO CHROMOSOMAL ABERRATIONS, Test System: HUMAN PERIPHERAL LYMPHOCYTES, Species: HUMAN, Route: INHALATION (WORKPLACE), Method: FISH
active: End Point: IN VITRO CHROMOSOMAL ABERRATIONS, Test System: BOVINE PERIPHERAL LYMPHOCYTES, Metabolic Activation: NONE active; positive (structural changes) | End Point: IN VITRO CHROMOSOMAL ABERRATIONS, Test System: BOVINE PERIPHERAL LYMPHOCYTES, Metabolic Activation: NONE, Method: FISH active; positive (structural changes) | End Point: IN VITRO CHROMOSOMAL ABERRATIONS, Test System: BOVINE PERIPHERAL LYMPHOCYTES, Metabolic Activation: RAT, S-9, AROCLOR 1254 active; positive (structural changes) | End Point: IN VITRO MICRONUCLEUS, Test System: BOVINE LYMPHOCYTES, Metabolic Activation: NONE active; positive | End Point: IN VITRO MICRONUCLEUS, Test System: BOVINE LYMPHOCYTES, Metabolic Activation: S-9 MIX, AROCLOR 1254 active; positive | End Point: IN VITRO MICRONUCLEUS, Test System: CHL/IU CELLS, Metabolic Activation: RAT, LIVER, S-9, PHENOBARBITAL AND 5,6-BENZOFLAVONE active; positive | End Point: IN VITRO MICRONUCLEUS, Test System: MCL-5 CELLS, Metabolic Activation: NONE active; positive | End Point: IN VIVO CHROMOSOMAL ABERRATIONS, Test System: DUAL COLOR PAINTING OF CHROMOSOMES 8 AND 21 FROM PERIPHERAL LYMPHOCYTES, METAPHASE SPREADS, Species: HUMAN, Strain/Sex: MALE, FEMALE, Route: INHALATION (WORKPLACE), Method: FISH active; positive | End Point: IN VIVO CHROMOSOMAL ABERRATIONS, Test System: LYMPHOCYTES, Species: HUMAN, Route: PROBABLY INHALATION, Method: FISH (INTERPHASE OR METAPHASE; CHROMOSOMES 7, 8, 9) active; positive (structural and ploidy changes) | End Point: IN VIVO CHROMOSOMAL ABERRATIONS, Test System: PERIPHERAL BLOOD LYMPHOCYTES, Species: HUMAN (COKE OVEN WORKERS), Route: INHALATION, Method: FISH active; positive (monosomy and trisomy of chromosomes 8 and 21) | End Point: IN VIVO CHROMOSOMAL ABERRATIONS, Test System: PERIPHERAL BLOOD LYMPHOCYTES, Species: HUMAN (PETROLEUM REFINERY WORKERS), Strain/Sex: MALE, Route: INDUSTRIAL EXPOSURE active; positive | End Point: IN VIVO CHROMOSOMAL ABERRATIONS, Test System: PERIPHERAL HUMAN LYMPHOCYTES, Species: HUMAN, Route: INDUSTRIAL EXPOSURE (INHALATION) active; positive (ploidy) | End Point: IN VIVO MICRONUCLEUS, Test System: BONE MARROW POLYCHROMATIC ERYTHROCYTES, Species: MOUSE, Strain/Sex: CD-1/MALE, Route: ORAL (GAVAGE) active; positive | End Point: IN VIVO MICRONUCLEUS, Test System: BONE MARROW, Species: MOUSE, Strain/Sex: B6C3F1/MALE, Route: GAVAGE active; positive | End Point: IN VIVO MICRONUCLEUS, Test System: SPLENOCYTES, Species: MOUSE, Strain/Sex: CD-1/MALE, Route: ORAL (GAVAGE) active; positive | End Point: In vivo micronucleus, Test System: Bone marrow polychromatic erythrocytes, Species: Mouse, Strain/Sex: CD-1/Male, Route: Inhalation active; positive | End Point: In vivo micronucleus, Test System: Peripheral blood normochromatic erythrocytes, Species: Mouse, Strain/Sex: B6.129-Cdkn2atm1Rdp (i.e. Haploinsufficient p16Ink4a/p19Arf)/Female, Route: Gavage active; positive (deletions in the cdkn2a gene predispose rodents to cancer at multiple | End Point: In vivo micronucleus, Test System: Peripheral blood normochromatic erythrocytes, Species: Mouse, Strain/Sex: B6.129-Cdkn2atm1Rdp (i.e. Haploinsufficient p16Ink4a/p19Arf)/Male, Route: Gavage active; positive (deletions in the cdkn2a gene predispose rodents to cancer at multiple
